Reference: patent EP4563146A1 (IRBM S.P.A., priority 2023, dated 2025)
Read-outs that look alike come from different tables or passages of the source.

How the values were obtained:
ZIKV replicon = experiment: ZIKV replication inhibition assay (NanoLuc replicon in Vero cells); settings: Zika virus, Vero, 72 h
[1] = biological target: T1, West Nile Virus (WNV) NS2B-NS3 protease (West Nile virus, UniProt Q9Q6P4); experiment: WNV protease inhibition assay; type: biochemical; settings: Table 4; letter codes for IC50
T1 construct: NS2B1423-1470); purchased R&D 2907-SE-020
Description: WNV protease inhibition assay

[2] = read-out: ZIKA Cell_Nanoluc, Vero cells with stable ZIKV replicon, 72 h, Nano-Glo readout

T1 sequence (Q9Q6P4 1423-1470): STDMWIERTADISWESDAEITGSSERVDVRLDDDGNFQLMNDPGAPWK
T1 sequence (Q9Q6P4 1506-1689): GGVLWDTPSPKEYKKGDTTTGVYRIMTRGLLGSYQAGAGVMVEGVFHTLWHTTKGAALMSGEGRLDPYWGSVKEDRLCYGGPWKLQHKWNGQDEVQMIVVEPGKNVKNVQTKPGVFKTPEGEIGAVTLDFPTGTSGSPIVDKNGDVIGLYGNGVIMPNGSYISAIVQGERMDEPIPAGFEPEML

Structure (SMILES)	EC50 (ZIKV replicon; read-out: ZIKA Cell_Nanoluc) [nM]	IC50 [1] [nM]	EC50 (ZIKV replicon; [2]) [nM]
CN(C)C[C@H]1CC[C@H]([n+]2cc([N-]C(=O)Nc3cc(NC(=O)Cc4cccc(Cl)c4)cc(C(F)(F)F)c3)on2)CC1 [Example 176, ((3-(2-(3-Chlorophenyl)acetamido)-5-(trifluoromethyl)phenyl)carbamoyl)(3-((1R,4R)-4-((dimethylamino)methyl)cyclohexyl)-1,2,3-oxadiazol-3-ium-5-yl)amide]	1000 to 20000	100 to 1000	–
CN(C)C[C@H]1CC[C@H]([n+]2cc([N-]C(=O)Nc3cc(NC(=O)C4CCCc5ccccc54)cc(C(F)(F)F)c3)on2)CC1 (stereo partly drawn) [Example 177, (3-((1R,4R)-4-((Dimethylamino)methyl)-cyclohexyl)-1,2,3-oxadiazol-3-ium-5-yl)((3-(1,2,3,4-tetrahydronaphthalene-1-carboxamido)-5-(trifluoromethyl)phenyl)carbamoyl)amide]	1000 to 20000	100 to 1000	–
O=C([N-]c1c[n+](C[C@H]2CC[C@@H](c3cncnc3)CC2)no1)Nc1cccc(C(F)(F)F)c1 [Example 179, (3-(((1S,4S)-4-(Pyrimidin-5-yl)cyclohexyl)-methyl)-1,2,3-oxadiazol-3-ium-5-yl)((3-(trifluoromethyl)phenyl)carbamoyl)amide]	1000 to 20000	1000 to 20000	–
O=C([N-]c1c[n+](C[C@H]2CC[C@@H](c3cncnc3)CC2)no1)Nc1ccnc(C(F)(F)F)c1 [Example 182, (3-(((1S,4S)-4-(Pyrimidin-5-yl)cyclohexyl)methyl)-1,2,3-oxadiazol-3-ium-5-yl)((2-(trifluoromethyl)pyridin-4-yl)carbamoyl)amide]	1000 to 20000	100 to 1000	–
O=C([N-]c1c[n+](CC23CC(c4cncnc4)(C2)C3)no1)Nc1cccc(C(F)(F)F)c1 [Example 183, (3-((3-(Pyrimidin-5-yl)bicyclo[1.1.1]pentan-1-yl)methyl)-1,2,3-oxadiazol-3-ium-5-yl)((3-(trifluoromethyl)phenyl)carbamoyl)amide]	–	100 to 1000	100 to 1000
Cc1ncnc(C)c1-c1ccc(C[n+]2cc([N-]C(=O)Nc3cccc(C(F)(F)F)c3)on2)nn1 [Example 184, (3-((6-(4,6-Dimethylpyrimidin-5-yl)pyridazin-3-yl)methyl)-1,2,3-oxadiazol-3-ium-5-yl)((3-(trifluoromethyl)phenyl)carbamoyl)amide]	–	100 to 1000	100 to 1000
O=C([N-]c1c[n+](CC23CCC(c4cncnc4)(CC2)C3)no1)Nc1ccnc(C(F)(F)F)c1 [Example 185, (3-((4-(Pyrimidin-5-yl)bicyclo[2.2.1]heptan-1-yl)methyl)-1,2,3-oxadiazol-3-ium-5-yl)((2-(trifluoromethyl)pyridin-4-yl)carbamoyl)amide]	–	100 to 1000	1000 to 20000
O=C([N-]c1c[n+](C[C@H]2CC[C@H](c3cncnc3)CC2)no1)Nc1cccc(C(F)(F)F)c1 [Example 186, (3-(((1R,4R)-4-(Pyrimidin-5-yl)cyclohexyl)methyl)-1,2,3-oxadiazol-3-ium-5-yl)((3-(trifluoromethyl)phenyl)carbamoyl)amide]	1000 to 20000	100 to 1000	–
O=C([N-]c1c[n+](C[C@H]2CC[C@H](c3cncnc3)CC2)no1)Nc1ccnc(C(F)(F)F)c1 [Example 187, (3-(((1R,4R)-4-(Pyrimidin-5-yl)cyclohexyl)-methyl)-1,2,3-oxadiazol-3-ium-5-yl)((2-(trifluoromethyl)pyridin-4-yl)carbamoyl)amide]	100 to 1000	100 to 1000	–
Cc1nnccc1-c1ccc(C[n+]2cc([N-]C(=O)Nc3ccnc(C(F)(F)F)c3)on2)cc1 [Example 188, (3-(4-(3-Methylpyridazin-4-yl)benzyl)-1,2,3-oxadiazol-3-ium-5-yl)((2-(trifluoromethyl)-pyridin-4-yl)carbamoyl)amide]	–	< 100	< 100
CN(C)C[C@H]1CC[C@H]([n+]2cc([N-]C(=O)Nc3cc(NC(=O)Cc4ccccc4O)cc(C(F)(F)F)c3)on2)CC1 [Example 191, (3-((1R,4R)-4-((Dimethylamino)methyl)-cyclohexyl)-1,2,3-oxadiazol-3-ium-5-yl)((3-(2-(2-hydroxyphenyl)acetamido)-5-(trifluoromethyl)-phenyl)carbamoyl)amide]	< 100	1000 to 20000	–
CN(C)C[C@H]1CC[C@H]([n+]2cc([N-]C(=O)Nc3cc(NC(=O)Cc4ccccc4Cl)nc(C(F)(F)F)c3)on2)CC1 [Example 193, ((2-(2-(2-Chlorophenyl)acetamido)-6-(trifluoromethyl)pyridin-4-yl)carbamoyl)(3-((1R,4R)-4-((dimethylamino)methyl)-cyclohexyl)-1,2,3-oxadiazol-3-ium-5-yl)amide]	100 to 1000	1000 to 20000	–
CN(C)C[C@H]1CC[C@H]([n+]2cc([N-]C(=O)Nc3cc(NC(=O)C(F)c4ccccc4F)cc(C(F)(F)F)c3)on2)CC1 (stereo partly drawn) [Example 194, (3-((1R,4R)-4-((Dimethylamino)methyl)-cyclohexyl)-1,2,3-oxadiazol-3-ium-5-yl)((3-(2-fluoro-2-(2-fluorophenyl)acetamido)-5-(trifluoromethyl)phenyl)carbamoyl)amide]	< 100	100 to 1000	–
CN(C)C[C@H]1CC[C@H]([n+]2cc([N-]C(=O)Nc3cc(NC(=O)C4Cc5ccccc54)cc(C(F)(F)F)c3)on2)CC1 (some centres unmarked) [Example 195]	100 to 1000	1000 to 20000	–
CN(C)C[C@H]1CC[C@H]([n+]2cc([N-]C(=O)Nc3cc(NC(=O)Cc4cccc(O)n4)cc(C(F)(F)F)c3)on2)CC1 [Example 196, (3-((1R,4R)-4-((Dimethylamino)methyl)-cyclohexyl)-1,2,3-oxadiazol-3-ium-5-yl)((3-(2-(6-hydroxypyridin-2-yl)acetamido)-5-(trifluoromethyl)phenyl)carbamoyl)amide]	100 to 1000	1000 to 20000	–
Cc1noc(C)c1CC(=O)Nc1cc(NC(=O)[N-]c2c[n+]([C@H]3CC[C@H](CN(C)C)CC3)no2)cc(C(F)(F)F)c1 [Example 197, (3-((1R,4R)-4-((Dimethylamino)methyl)-cyclohexyl)-1,2,3-oxadiazol-3-ium-5-yl)((3-(2-(3,5-dimethylisoxazol-4-yl)acetamido)-5-(trifluoromethyl)phenyl)carbamoyl)amide]	< 100	1000 to 20000	–
CN(C)C[C@H]1CC[C@H]([n+]2cc([N-]C(=O)Nc3cc(NC(=O)Cc4c(F)cccc4Cl)cc(C(F)(F)F)c3)on2)CC1 [Example 198, ((3-(2-(2-Chloro-6-fluorophenyl)acetamido)-5-(trifluoromethyl)phenyl)carbamoyl)(3-((1R,4R)-4-((dimethylamino)methyl)cyclohexyl)-1,2,3-oxadiazol-3-ium-5-yl)amide]	< 100	1000 to 20000	–
CN(C)C[C@H]1CC[C@H]([n+]2cc([N-]C(=O)Nc3cc(NC(=O)Cc4c(F)cccc4F)cc(C(F)(F)F)c3)on2)CC1 [Example 199, ((3-(2-(2,6-Difluorophenyl)acetamido)-5-(trifluoromethyl)phenyl)carbamoyl)(3-((1R,4R)-4-((dimethylamino)methyl)cyclohexyl)-1,2,3-oxadiazol-3-ium-5-yl)amide]	< 100	100 to 1000	–
Cc1ccccc1CC(=O)Nc1cc(NC(=O)[N-]c2c[n+]([C@@H]3CCC[C@H](N(C)C)C3)no2)cc(C(F)(F)F)c1 [Example 202, (3-((1R,3S)-3-(Dimethylamino)cyclohexyl)-1,2,3-oxadiazol-3-ium-5-yl)((3-(2-(o-tolyl)acetamido)-5-(trifluoromethyl)phenyl)-carbamoyl)amide]	–	100 to 1000	1000 to 20000
Cc1ccccc1CC(=O)Nc1cc(NC(=O)[N-]c2c[n+]([C@@H]3CCCC[C@H]3O)no2)cc(C(F)(F)F)c1 [Example 203, (3-((1R,2R)-2-Hydroxycyclohexyl)-1,2,3-oxadiazol-3-ium-5-yl)((3-(2-(o-tolyl)acetamido)-5-(trifluoromethyl)phenyl)carbamoyl)amide]	–	100 to 1000	100 to 1000
CN(C)[C@H]1CCC[C@@H]([n+]2cc([N-]C(=O)Nc3ccnc(C(F)(F)F)c3)on2)C1 [Example 204, (3-((1R,3S)-3-(Dimethylamino)cyclohexyl)-1,2,3-oxadiazol-3-ium-5-yl)((2-(trifluoromethyl)-pyridin-4-yl)carbamoyl)amide]	–	100 to 1000	1000 to 20000
CC(C(=O)Nc1cc(NC(=O)[N-]c2c[n+]([C@H]3CC[C@H](CN(C)C)CC3)no2)cc(C(F)(F)F)c1)c1ccccc1Cl (stereo partly drawn) [Example 205, ((3-(2-(2-Chlorophenyl)propanamido)-5-(trifluoromethyl)phenyl)carbamoyl)(3-((1R,4R)-4-((dimethylamino)methyl)cyclohexyl)-1,2,3-oxadiazol-3-ium-5-yl)amide]	1000 to 20000	100 to 1000	–
Cc1ccccc1CC(=O)Nc1cc(NC(=O)[N-]c2c[n+]([C@H]3CC[C@H](C(C)(C)O)CC3)no2)cc(C(F)(F)F)c1 [Example 206, (3-((1R,4R)-4-(2-Hydroxypropan-2-yl)cyclohexyl)-1,2,3-oxadiazol-3-ium-5-yl)((3-(2-(o-tolyl)acetamido)-5-(trifluoromethyl)phenyl)-carbamoyl)amide]	100 to 1000	< 100	–
Cc1ncnc(C)c1-c1ccc(C[n+]2cc([N-]C(=O)Nc3ccc(C#N)c(C(F)(F)F)c3)on2)cc1 [Example 207, ((4-Cyano-3-(trifluoromethyl)phenyl)-carbamoyl)(3-(4-(4,6-dimethylpyrimidin-5-yl)benzyl)-1,2,3-oxadiazol-3-ium-5-yl)amide]	–	100 to 1000	100 to 1000
CN(C)C[C@H]1CC[C@H]([n+]2cc([N-]C(=O)Nc3cc(NC(=O)C(C)(C)c4ccccc4)cc(C(F)(F)F)c3)on2)CC1 [Example 208, (3-((1R,4R)-4-((Dimethylamino)methyl)-cyclohexyl)-1,2,3-oxadiazol-3-ium-5-yl)((3-(2-methyl-2-phenylpropanamido)-5-(trifluoromethyl)phenyl)carbamoyl)amide]	1000 to 20000	100 to 1000	–
